Experimental data published in article PMC7449455 (PLoS Neglected Tropical Diseases, 2020).
Entries after “also recorded” stand apart in the source; their conditions may differ. Counter-ions that a name gives are not always drawn.

Experiments:
[1] = Cytotoxicity in HepG2 cells (CellTiter-Glo); type: cell-based; settings: human, HepG2 cell line, ATP quantification
Procedure: (§1) To determine compound toxicity we used the HepG2 cell line (human hepatocellular carcinoma, ATCC HB-8065) as a widely used cell-based assay. The cells were maintained in MEM (Gibco) supplemented with 5% heat-inactivated FBS, 1 mM Sodium pyruvate (Gibco) and 1X MEM amino acids solution (Sigma). Briefly, cells were added to white-bottomed 96-well plates containing 100 μL of serial 2-fold dilutions of the H1RAs. After 24 hours of culture at 37 °C, the percentage of viable cells was determined by ATP quantification using the CellTiter-Glo luminescent Cell Viability Assay (Promega) according to the manufacturer’s instructions. […] At least three different assays were carried out to determine the IVTI of each compound, which was calculated as the ratio between the CC50 obtained in the HepG2 cell line and the EC50 determined in the L. major EVC [21]. To evaluate the cytotoxicity of AZ and FX in peritoneal macrophages, adherent cells obtained from peritoneal lavage of naïve mice (10,000/well) were exposed during 24 hours at 37°C to serial drug concentrations (0.09 μM—200 μM). Cell viability was determined by CellTiter-Glo (Promega).

L. major [2] = experiment: L. major ex vivo lymph node explant culture (EVC), luminometry; type: cell-based, Leishmania major; settings: 48 h at 34°C, luminescence
Procedure: An ex vivo explant culture (EVC) used in multiple experiments was obtained as previously described. Briefly, the mice were inoculated on the snout and rump with 10^7 metacyclic promastigotes of L. major-LUC. At 3 weeks post-infection (p.i.), the draining lymph nodes (retropharyngeal and sub-iliac) of infected animals were aseptically removed, infiltrated with 2 mg/mL of collagenase D (Roche) and incubated for 30 minutes at 37°C [21]. The cell suspension was washed in DMEM, and re-suspended in 2X supplemented culture medium, composed of DMEM (Cellgro), 10% heat-inactivated FBS (Atlanta Biologicals, Lawrenceville, GA), 2 mM Sodium pyruvate (Sigma, St. Louis MO), 2X MEM amino acids solution (Sigma), and 20 mM HEPES buffer (Cellgro). The EVC 100,000-cell suspension in 100 μL was dispensed in white luminometry plates (Costar) and exposed to 2-fold serial dilutions of 2X H1RAs in 100 μL DMEM (plain culture medium).
(§2) Cells exposed to compounds were lysed and the luciferase signal read in a plate luminometer (FLUOstar Omega, BMG Labtech) after adding 100 μL of luciferin substrate (Promega). The percentage of parasite inhibition compared with the vehicle control was calculated as = 100 - [(parasite counts in treated cells/parasite counts in vehicle wells) x 100]. The EC50 was determined by regression analysis using GraphPad (Prism 5.0) and the mean and standard error from three different experiments was utilized to estimate the final EC50. The anti-leishmanial efficacy of compounds was evaluated using L. major-LUC promastigotes in the logarithmic phase of growth (4 days). The parasites were grown in M199 supplemented with 20% FBS, 0.1% hemin and 10 mM adenine. Then, L. major was harvested and exposed to serial 2-fold dilutions of the compounds in a 100μL volume (10^6 promastigotes/mL) in 96-well white plates. After 48 h at 28°C incubation, the parasites were pelleted by centrifugation, lysed and 100 μL of luciferin substrate was added (Promega). The luciferase signal was read as described above.

L. major [3] = experiment: In vivo efficacy in BALB/c mice infected with L. major-LUC
Procedure: Mice were infected in the rump with 10^7 opsonized promastigotes of L. major-LUC as we previously described. The animals were treated starting at day 3 p.i. for up to 10 days. AZ (0.0625 and 0.125 mg/mouse) and FX (40 and 80 mg/kg) were dissolved in sterile PBS and administered by intralesional injection (ID) or gavage (PO), respectively. Mice receiving AZ were treated 3 times at 48-hour intervals. Control mice received sterile PBS according to the route used by each H1RAs (ID or PO). Miltefosine was administered orally at doses of 25 mg/kg or 50 mg/kg for 10 days and used as positive control of parasite suppression. The clinical efficacy was assessed by comparing lesion size (LS) after 10 days of treatment compared with the negative vehicle control as described by Grogl et al.. Therefore, percent suppression was defined as [(LS negative control–LS compound) / LS negative control] x 100. A parasite suppression ≥50% compared with the untreated control was considered significant anti-leishmanial activity. Lesion size (area in mm^2 = length x width) was measured using a digital caliper (Mitutoyo; Kawasaki, Japan).
The parasite burden of individual mice was assessed in vivo at the beginning and end of the experiment using the IVIS Spectrum equipment (Perkin Elmer) by injecting the animals with 1.5 mg luciferin (GoldBio) intradermally at the infection site. The ultrasensitive IVIS camera quantitatively measures the light emitted by the luciferase-transfected L. major upon exposure to the substrate (firefly luciferin). The mice were imaged under deep anesthesia using an isoflurane vaporizer. They were placed in a supine position in the pre-warmed IVIS box and the images were taken exactly 5 minutes after luciferin injection. The analysis was performed after defining a standard region of interest (ROI) over the infection site using the Living Image software (Xenogen Corporation, Almeda, CA). This protocol allowed us to determine the parasite burden in the same animal over multiple time points. Results were expressed in units of photons per second. […] This approach is in accordance with the criteria proposed for Leishmania in deciding when a compound qualifies to progress into ‘lead’ compound identification.

[4] = tested on: L. major-LUC promastigotes; experiment: L. major-LUC promastigote culture, luminometry; type: cell-based, Leishmania major; settings: 48 h, compared with concentrations used against intracellular amastigotes
Procedure: as §2

[5] = design: method as in PMID 11316966; settings: daily oral 4 mg for 21 days, chronic idiopathic urticaria; cited from earlier work
L. major [6] = experiment: L. major-infected peritoneal macrophages with or without CD3+ T cells, luminometry; type: cell-based, Leishmania major
Procedure: The anti-leishmanial efficacy of AZ was also evaluated in adherent peritoneal macrophages from naïve mice infected in vitro with L. major promastigotes (1 cell: 10 parasites) during 4 h at 34°C. After washing extracellular parasites, infected cells were transferred to white plates (10,000/well) and exposed to AZ. The effect of T cells on parasite burden of AZ-treated cells was evaluated using CD3T+ cells. These cells were isolated by positive selection with magnetic beads (MojoSort, Biolegend) from the lymph nodes of either uninfected or L. major-infected mice (1 infected macrophage: 2 lymphocytes ratio). Parasite burden was determined after 48 h of culture by luminometry.

[7] = Cytotoxicity in naive mouse peritoneal macrophages (CellTiter-Glo); type: cell-based; settings: read-out: CC50 (toxicity in peritoneal macrophages)
Procedure: as §1

[8] = tested on: h1r, il-1ẞ, IL-6 expression; experiment: Gene expression by qPCR in L. major ex vivo lymph node explant culture; type: cell-based, mouse; settings: EVC; for expression of H1R / expression of IL-1ẞ: quantitative PCR
Procedure: After 48 h of ex vivo treatments, the samples were lysed in 10 μL of IGEPAL lysis buffer (10 mM Tris-HCL ph7.4 + 0.3% IGEPAL, 0.1% BSA + 150 mM NaCl and 1,500 cells/μL) and reverse transcribed (High-Capacity cDNA Reverse Transcription Kit, ThermoFisher Sci.). Mouse h1r, il-1ẞ, and Leishmania 18s genes were amplified by qPCR using the following primers: mouse h1r: Fw- […]; Rev-[…] (PrimerBank database; ID and 31542963a1); Mouse il-1β: Fw- […]; Rev- […]); Leishmania 18s: Fw-[…]; Rev- […] [28]. Amplicons were detected with SYBR. The fold change of gene expression was estimated by the delta CT method using the host cell 18s as reference gene. The percentage of parasite load was calculated with reference to DMSO controls.

L. infantum [9] = tested on: L. infantum; design: method as in PMID 31002807; settings: infected spleen macrophages from hamsters; cited from earlier work
Leishmania mexicana = settings: alone or in combination with pentostam; cited from earlier work
L. infantum [10] = tested on: L. infantum; design: method as in PMID 31002807, PMID 24905294; settings: cited from earlier work
[11] = AZ 0.06 mg/mouse intralesional, statistically non-significant
[12] = AZ 0.125 mg/mouse intralesional x3, luminometry
[13] = FX lower-dose regimens (40 mg/kg twice a day or 80 mg/kg once a day)

C[C@@H]1[C@H](O)[C@@H](C)/C=C/C=C/C=C/C=C/C=C/C=C/C=C/[C@H](O[C@@H]2O[C@H](C)[C@@H](O)[C@H](N)[C@@H]2O)C[C@@H]2O[C@](O)(C[C@@H](O)C[C@@H](O)[C@H](O)CC[C@@H](O)C[C@@H](O)CC(=O)O[C@H]1C)C[C@H](O)[C@H]2C(=O)O [Amphotericin B]
CC50 at 24 h [1]: 16.3 ± 1.49 µM
EC50 (L. major [2]; Leishmania major, 48 h): 0.5 ± 0.01 µM

CN1CCCC(n2nc(Cc3ccc(Cl)cc3)c3ccccc3c2=O)CC1 (stereo not shown) [Azelastine]
reduction of parasite burden in lymph node (L. major [3]; [11]): 15%
reduction of parasite burden in the lesion (L. major [3]; [11]): 57%
reduction of parasite load in lymph node (L. major [3]; [12]): 36%
reduction of parasite load in the lesion (L. major [3]; [12]): 87%
lesion diminution compared with untreated controls (L. major [3]; AZ 0.125 mg/mouse, three intralesional injections every other day): 52%
weight loss or observable side effect (L. major [3]; AZ intralesional, 0.125 mg/mouse, listed as AZ): no observable side effects; also recorded: None of the mice treated with this compound presented weight loss or any observable side effect
suppressive effect against cultured promastigotes [4]: suppressive effect against cultured promastigotes only when used at concentrations 100-fold higher
side effects [5]: lack of side effects
intracellular amastigote suppression (L. major [6]; 0.5 μM, infected naive mouse peritoneal macrophages, 48 h): positive effect on intracellular amastigote suppression
parasite killing with primed T cells from infected mice (L. major [6]; in presence of AZ, versus macrophages alone or with naive lymphocytes): significantly enhanced parasite killing
CC50 at 24 h [1]: 45.1 ± 11.2 µM
CC50 at 24 h [7]: 0.95 µM
EC50 (L. major [2]; Leishmania major, 48 h): 0.05 ± 0.02 µM
decrease of the expression of IL-6 ([8]; qPCR, highly variable): 20.1± 21%
expression of H1R [8]: significantly inhibited its expression
expression of IL-1ẞ [8]: reduced the pro-inflammatory cytokine IL1-ẞ

CN(C)CCN(Cc1ccc(Cl)cc1)c1ccccn1 [Chloropyramine]
CC50 at 24 h [1]: 140 ± 49.6 µM
EC50 (L. major [2]): 3.87 ± 0.2 µM
EC50 (L. major [2]; listed as chloropyramine): < 10 µM

CN1CCC(=C2c3ccccc3C=Cc3ccccc32)CC1 [Cyproheptadine]
CC50 at 24 h [1]: 172 ± 41 µM

CN(C)CC[C@@H](c1ccc(Cl)cc1)c1ccccn1 [Dexchlorpheniramine maleate]
CC50 at 24 h [1]: 177 ± 16.3 µM
EC50 (L. major [2]; Leishmania major, 48 h): 35.2 ± 6.9 µM

CC(C)(C(=O)O)c1ccc(C(O)CCCN2CCC(C(O)(c3ccccc3)c3ccccc3)CC2)cc1 (stereo not shown) [Fexofenadine]
reduction in lesion size (L. major [3]; FX 40 mg/kg PO twice a day): 50%
reduction in lesion size (L. major [3]; FX 80 mg/kg PO once a day): 37%
loss of body weight (L. major [3]; FX 80 mg/kg PO twice a day): ≤ 5%
reduction in lesion size compared with untreated control (L. major [3]; FX 80 mg/kg PO twice a day): 69%
reduction in parasite burden at the lesion site (L. major [3]; FX 80 mg/kg PO twice a day): 82%
reduction in parasite burden in draining lymph nodes (L. major [3]; FX 80 mg/kg PO twice a day): 81%
clinical side effects (L. major [3]; FX PO, 80 mg/kg twice a day, listed as FX, 80 mg/kg): no observable side effects; also recorded: no other clinical side effect was found
reduction of parasite load in lesions (L. major [3]; [13]): up to 59%
reduction of parasite load in lymph nodes (L. major [3]; [13]): ≤ 72%
IC50 (L. infantum [9]): > 100 µM
EC50 (L. major [2]; Leishmania major, 48 h): 1.5 ± 0.18 µM

CN1CCC(=C2c3ccccc3CC(=O)c3sccc32)CC1 [Ketotifen]
CC50 at 24 h [1]: 282 ± 22.9 µM
EC50 (L. major [2]; Leishmania major, 48 h): 11.86 ± 0.1 µM

c1ccc2c(c1)Sc1ccccc1N2CC1CN2CCC1CC2 (stereo not shown) [Mequitazine]
CC50 at 24 h [1]: 50.3 ± 8.75 µM
EC50 (L. major [2]): 4.53 ± 3.9 µM
EC50 (L. major [2]; listed as mequitazine): < 10 µM

CN1CCN2c3ccccc3Cc3ccccc3C2C1 (stereo not shown) [Mianserin]
CC50 at 24 h [1]: 157 ± 19 µM

CCCCCCCCCCCCCCCCOP(=O)([O-])OCC[N+](C)(C)C [Miltefosine]
CC50 at 24 h [1]: 74.9 ± 5.01 µM
EC50 (L. major [2]; Leishmania major, 48 h): 1.64 ± 0.26 µM

Cc1ccc(/C(=C\CN2CCCC2)c2ccccn2)cc1 [Triprolidine]
CC50 at 24 h [1]: 390 ± 27.9 µM
EC50 (L. major [2]; Leishmania major, 48 h): 11.2 ± 4.2 µM

CN/C(=N/CCSCc1nc[nH]c1C)NC#N [cimetidine]
treatment efficacy (Leishmania mexicana): effective

C(=C\c1ccccc1)/CN1CCN(C(c2ccccc2)c2ccccc2)CC1 [cinnarizine]
parasite load in hamster spleen (L. infantum [10]): failed to significantly decrease the parasite load

NCCc1c[nH]cn1 [histamine]
expression of H1R [8]: markedly increased the expression of H1R
expression of IL-1ẞ [8]: increased the expression of IL-1ẞ
